Counter-ions that a name gives are not always drawn.
Tests used:
[1] = Stability of the isolated compound (observation in synthesis); format: physicochemical; details: after column chromatography, brown oil
Protocol: Chloromethyl (4S,5S)-5-((2S)-2-{[(3-amino-2,2-dimethyl-3-oxopropyl)amino]carbonyl}-3-methylbutyl)-4-{(2S)-2-[4-methoxy-3-(3-methoxypropoxy)benzyl]-3-methylbutyl}-1,3-oxazolidine-3-carboxylate (191 mg) and sodium iodide (135 mg) were mixed with dry acetonitrile and heated under stirring at 75° C. for 1 h 20 min. Full conversion according to LC-MS. Reaction mixture was mixed with water and extracted into DCM, washed with brine, dried over MgSO4. 186 mg of crude product was obtained, which was purified by column chromatography on silica gel (EtOAc) to give 72 mg of pure material as brown oil. […] LCMS: 748.3 [M+1]^+, 770.3 [M+Na]^+.

[2] = Chemical stability at pH 7.4; format: physicochemical; details: pH 7.4 aqueous phosphate buffer, 3 h incubation at 37° C., LCMS
Protocol: (§1) The compounds of the invention were studied for their chemical stability:
10 mM DMSO solution of the compound of the formula (I) was prepared. 10 μl of the solution was added to 1 ml of pH 7.4 aqueous phosphate buffer at 37° C. The solution was kept at 37° C. At each time points, a small aliquote was taken and the sample was analyzed by LCMS.

[3] = Chemical stability at pH 2.0; format: physicochemical; details: pH 2 aqueous buffer, 3 h incubation at 37° C., LCMS
Protocol: as §1
10 mM DMSO solution of the compound of the formula (I) was prepared. 10 μl of the solution was added to 1 ml of pH 2 aqueous buffer at 37° C. The solution was kept at 37° C. At each time point, a small aliquote was taken and the sample was analyzed by LCMS.

[4] = In vivo bioavailability experiment: plasma aliskiren after a single i.v. or oral dose; details: male, Sprague-Dawley, rat, rats, plasma up to 24 h
Protocol: For comparison, aliskiren hemifumarate was dosed both i.v. (intravenous) and orally. For all experiment, the compounds were administrated to three individually weighted male Sprague-Dawley rats. For all po dosing, the dose was 25 μmole/kg in a dose volume of 8 ml/kg and the dose vehicle was 50% propylene glycol/50% pH 4.75 buffer (0.1M aqueous buffer of NaOAc/HOAc) by volume ratio. […] For the i.v. dosing of the compounds of invention, a vehicle of 45% PEG400/55% pH 4.75 buffer (0.1M aqueous buffer of NaOAc/HOAc) by volume ratio was used and the dose were 5 μmole/kg in a dose volume of 1.5 ml/kg. Male Sprague-Dawley rats were fasted for about 16-17 h before po dosing and fasting lasted about 2-3 h post-dose. Water was given ad libitum. The blood samples were taken at different time points up to 24 h. For i.v. dosing group, at 5 min, 15 min, 30 min, 1 h, 2 h, 4 h, 6 h, 8 h, 24 h. For oral doing group, at 15 min, 30 min, 1 h, 2 h, 4 h, […], 24 h. The blood samples were collected in heparinized tube and centrifuged at 3500 rpm for 5 min. The plasma samples were stored at about −20° C. for analysis.
After the work-up of the plasma samples, LC-MS/MS was used for the quantitation of the aliskiren and the compounds of the invention. Standard curves were made for aliskiren and the substances for study.

[5] = Clinical Pharmacokinetics, 2008, 47, 515-531; cited from earlier work

Row | SMILES | Chemical stability pH 7.4 (decomposition) [2] | Chemical stability pH 2 (decomposition) [3] | other results
1 | COCCCOc1cc(C[C@@H](C[C@H]2[C@H](C[C@H](C(=O)NCC(C)(C)C(N)=O)C(C)C)OCN2C(=O)OCI)C(C)C)ccc1OC [Example 14, Iodomethyl (4S,5S)-5-((2S)-2-{[(3-amino-2,2-dimethyl-3-oxopropyl)amino]carbonyl}-3-methylbutyl)-4-{(2S)-2-[4-methoxy-3-(3-methoxypropoxy)benzyl]-3-methylbutyl}-1,3-oxazolidine-3-carboxylate] | – | – | stability of the compound [1]: not stable and decomposes rather rapidly
2 | COCCCOc1cc(C[C@@H](C[C@H]2[C@H](C[C@H](C(=O)NCC(C)(C)C(N)=O)C(C)C)OCN2C(=O)OCOC(=O)OC2CCN(C)CC2)C(C)C)ccc1OC [Example 35, ({[(1-methylpiperidin-4-yl)oxy]carbonyl}oxy)methyl (4S,5S)-5-((2S)-2-{[(3-amino-2,2-dimethyl-3-oxopropyl)amino]carbonyl}-3-methylbutyl)-4-{(2S)-2-[4-methoxy-3-(3-methoxypropoxy)benzyl]-3-methylbutyl}-1,3-oxazolidine-3-carboxylate] | A (Less than 5% decomposition after 3 h incubation at 37° C.) | A (Less than 5% decomposition after 3 h incubation at 37° C.) | –
3 | COCCCOc1cc(C[C@@H](C[C@H]2[C@H](C[C@H](C(=O)NCC(C)(C)C(N)=O)C(C)C)OCN2C(=O)OCOC(=O)C(C)(C)C)C(C)C)ccc1OC [Example 6, (4S,5S)-pivaloyloxymethyl 5-[(S)-2-(3-amino-2,2-dimethyl-3-oxopropylcarbamoyl)-3-methylbutyl]-4-{(S)-2-[4-methoxy-3-(methoxypropoxy)benzyl]-3-methylbutyl}oxazolidine-3-carboxylate] | B (Less than 25% decomposition after 3 h incubation at 37° C.) | A (Less than 5% decomposition after 3 h incubation at 37° C.) | –
4 | COCCCOc1cc(C[C@@H](C[C@H]2[C@H](C[C@H](C(=O)NCC(C)(C)C(N)=O)C(C)C)OCN2C(=O)OCOC(=O)C2(CN)CC2)C(C)C)ccc1OC [Example 53, {1-[({[((4S,5S)-5-((2S)-2-{[(3-amino-2,2-dimethyl-3-oxopropyl)amino]carbonyl}-3-methylbutyl)-4-{(2S)-2-[4-methoxy-3-(3-methoxypropoxy)benzyl]-3-methylbutyl}-1,3-oxazolidin-3-yl)carbonyl]oxy}methoxy)carbonyl]cyclopropyl}methanaminium trifluoroacetate] | C (Less than 50% decomposition after 3 h incubation at 37° C.) | A (Less than 5% decomposition after 3 h incubation at 37° C.) | –
5 | COCCCOc1cc(C[C@@H](C[C@H]2[C@H](C[C@H](C(=O)NCC(C)(C)C(N)=O)C(C)C)OCN2C(=O)OCOC(=O)C2(N)CC2)C(C)C)ccc1OC.O=C(O)C(F)(F)F [Example 43, {[(1-aminocyclopropyl)carbonyl]oxy}methyl (4S,5S)-5-((2S)-2-{[(3-amino-2,2-dimethyl-3-oxopropyl)amino]carbonyl}-3-methylbutyl)-4-{(2S)-2-[4-methoxy-3-(3-methoxypropoxy)benzyl]-3-methylbutyl}-1,3-oxazolidine-3-carboxylate, trifluoroacetate] | B (Less than 25% decomposition after 3 h incubation at 37° C.) | A (Less than 5% decomposition after 3 h incubation at 37° C.) | –
6 | COCCCOc1cc(C[C@@H](C[C@H]2[C@H](C[C@H](C(=O)NCC(C)(C)C(N)=O)C(C)C)OCN2C(=O)OCOC(=O)C2COCOC2)C(C)C)ccc1OC [Example 32, [(1,3-dioxan-5-ylcarbonyl)oxy]methyl (4S,5S)-5-((2S)-2-{[(3-amino-2,2-dimethyl-3-oxopropyl)amino]carbonyl}-3-methylbutyl)-4-{(2S)-2-[4-methoxy-3-(3-methoxypropoxy)benzyl]-3-methylbutyl}-1,3-oxazolidine-3-carboxylate] | B (Less than 25% decomposition after 3 h incubation at 37° C.) | A (Less than 5% decomposition after 3 h incubation at 37° C.) | –
7 | COCCCOc1cc(C[C@@H](C[C@H](N)[C@@H](O)C[C@H](C(=O)NCC(C)(C)C(N)=O)C(C)C)C(C)C)ccc1OC [Aliskiren hemifumarate] | – | – | AUC(0-t) ([4]; iv, i.v. 5 μmole/kg): 994 ± 162 ng·h/mL; AUC(0-t) ([4]; po, p.o. 25 μmole/kg): 28 ± 20.5 ng·h/mL
8 | COCCCOc1cc(C[C@@H](C[C@H]2[C@H](C[C@H](C(=O)NCC(C)(C)C(N)=O)C(C)C)OCN2C(=O)OCOC(=O)C(C)(C)CO)C(C)C)ccc1OC [Example 27, [(3-hydroxy-2,2-dimethylpropanoyl)oxy]methyl (4S,5S)-5-((2S)-2-{[(3-amino-2,2-dimethyl-3-oxopropyl)amino]carbonyl}-3-methylbutyl)-4-{(2S)-2-[4-methoxy-3-(3-methoxypropoxy)benzyl]-3-methylbutyl}-1,3-oxazolidine-3-carboxylate] | A (Less than 5% decomposition after 3 h incubation at 37° C.) | A (Less than 5% decomposition after 3 h incubation at 37° C.) | –
9 | COCCCOc1cc(C[C@@H](C[C@H](N)[C@@H](O)C[C@H](C(=O)NCC(C)(C)C(N)=O)C(C)C)C(C)C)ccc1OC [Aliskiren, (2S,4S,5S,7S)—N-(2-Carbamoyl-2-methylpropyl)-5-amino-4-hydroxy-2,7-diisopropyl-8-[4-methoxy-3-(3-methoxypropoxy)phenyl]-octanamide, reference compound] | A (Less than 5% decomposition after 3 h incubation at 37° C.) | A (Less than 5% decomposition after 3 h incubation at 37° C.) | oral bioavailability [5]: about 2.6%
10 | COCCCOc1cc(C[C@@H](C[C@H]2[C@H](C[C@H](C(=O)NCC(C)(C)C(N)=O)C(C)C)OCN2C(=O)OCOC(=O)c2cncn2C)C(C)C)ccc1OC [Example 44, {[(1-methyl-1H-imidazol-5-yl)carbonyl]oxy}methyl (4S,5S)-5-((2S)-2-{[(3-amino-2,2-dimethyl-3-oxopropyl)amino]carbonyl}-3-methylbutyl)-4-{(2S)-2-[4-methoxy-3-(3-methoxypropoxy)benzyl]-3-methylbutyl}-1,3-oxazolidine-3-carboxylate] | A (Less than 5% decomposition after 3 h incubation at 37° C.) | A (Less than 5% decomposition after 3 h incubation at 37° C.) | –
11 | COCCCOc1cc(C[C@@H](C[C@H]2[C@H](C[C@H](C(=O)NCC(C)(C)C(N)=O)C(C)C)OCN2C(=O)OCOC(=O)OC(C)C)C(C)C)ccc1OC [Example 12, (4S,5S)-(isopropoxycarbonyloxy)methyl 5-[(S)-2-(3-amino-2,2-dimethyl-3-oxopropylcarbamoyl)-3-methylbutyl]-4-{(S)-2-[4-methoxy-3-(methoxypropoxy)benzyl]-3-methylbutyl}oxazolidine-3-carboxylate] | B (Less than 25% decomposition after 3 h incubation at 37° C.) | A (Less than 5% decomposition after 3 h incubation at 37° C.) | –
